ChEMBL document CHEMBL1201862, “PubChem BioAssay data set” (2004)
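The compound was tested at five concentrations on cells cultured in 96-well plates, with a 48-hour exposure period. GI50 = concentration required for 50% inhibition of growth.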 The source made the active and inactive calls. Rule as the data show it: active = GI50 up to about 1.1 µM and inactive = higher.

Assays:
Experiment in all cases: NCI-60 cell line screen, 48 h
KM-20L2 = tested on: KM-20L2
M19-MEL = tested on: M19-MEL
LXFL 529 = tested on: LXFL 529
DMS-273 = tested on: DMS-273
DLD-1 = tested on: DLD-1
XF498 = tested on: XF498
SNB-78 = tested on: SNB-78
HOP-18 = tested on: HOP-18
RXF 631 = tested on: RXF 631

SMILES | GI50 (KM-20L2) | GI50 (M19-MEL) | GI50 (LXFL 529) | GI50 (DMS-273) | GI50 (DLD-1) | GI50 (XF498) | GI50 (SNB-78) | GI50 (HOP-18) | GI50 (RXF 631)
CCc1cccc(C(C)CC)c1NC(=O)CC1C(=O)Nc2ccccc2S1(=O)=O (stereo unspecified) | 25.2 µM (inactive) | 26.9 µM (inactive) | 11.2 µM (inactive) | 13.6 µM (inactive) | 13.6 µM (inactive) | > 100 µM (inactive) | 14.2 µM (inactive) | – | –
CCOC(=O)C(CC(C)C)NC(=O)C(N)Cc1ccc(N(CCCl)CCCl)cc1 (stereo unspecified) | 3.33 µM (inactive) | 1.65 µM (inactive) | 2.8 µM (inactive) | 0.632 µM (active) | 2.52 µM (inactive) | 1.52 µM (inactive) | – | 4.24 µM (inactive) | –
CCSc1nc(COC(=O)NC)c(COC(=O)NC)n1C | > 100 µM (inactive) | > 63.5 µM (inactive) | > 37.2 µM (inactive) | > 94.4 µM (inactive) | > 92.3 µM (inactive) | – | > 70.1 µM (inactive) | > 100 µM (inactive) | > 100 µM (inactive)
Nn1c(S)nnc1N/N=C1/C(=O)Nc2c(Cl)cc(Cl)cc21 | 81.8 µM (inactive) | > 100 µM (inactive) | 59.7 µM (inactive) | – | > 100 µM (inactive) | – | > 100 µM (inactive) | > 100 µM (inactive) | –
CCOc1nc(OCC)nc(-c2cccn2-c2ccccc2)n1 | – | 37.2 µM (inactive) | – | 30.1 µM (inactive) | – | – | 32.3 µM (inactive) | – | 57.5 µM (inactive)
OC[C@H]1O[C@@H](n2cnc3c(S)ncnc32)[C@H](O)[C@@H]1O [THIOINOSINE] | > 2500 µM (inactive) | > 2500 µM (inactive) | – | 971 µM (inactive) | – | > 1260 µM (inactive) | > 2500 µM (inactive) | 2070 µM (inactive) | –
COc1ccc(-c2c(C3=NCCCN3)nnn2-c2ccccc2)cc1 | > 100 µM (inactive) | > 100 µM (inactive) | > 100 µM (inactive) | > 100 µM (inactive) | > 100 µM (inactive) | > 100 µM (inactive) | > 100 µM (inactive) | > 100 µM (inactive) | –
C[Si](C)(C)/C=C/CN1C(=O)CCC1O (stereo unspecified) | > 100 µM (inactive) | > 100 µM (inactive) | > 100 µM (inactive) | > 100 µM (inactive) | > 100 µM (inactive) | > 100 µM (inactive) | > 100 µM (inactive) | > 100 µM (inactive) | –
CC1OC(n2ccc(=O)[nH]c2=O)C=C(OC(=O)c2ccccc2)C1=O (stereo unspecified) | 73.5 µM (inactive) | > 100 µM (inactive) | – | > 100 µM (inactive) | > 100 µM (inactive) | 21.2 µM (inactive) | > 100 µM (inactive) | 38.4 µM (inactive) | –
Nc1ccc2nc(Nc3ccc(Cl)c(Cl)c3)cnc2c1 | – | 18.2 µM (inactive) | – | 18.2 µM (inactive) | 34.7 µM (inactive) | – | 24.6 µM (inactive) | – | –
FC(F)(F)c1cccc2ns[s+]c12 | > 100 µM (inactive) | > 100 µM (inactive) | > 100 µM (inactive) | > 100 µM (inactive) | 35 µM (inactive) | > 100 µM (inactive) | > 100 µM (inactive) | > 100 µM (inactive) | > 100 µM (inactive)
C=CCNC(=S)OCCCCCCCCCC | 18.6 µM (inactive) | 17.6 µM (inactive) | 14.9 µM (inactive) | 19.9 µM (inactive) | 16.4 µM (inactive) | 16 µM (inactive) | 19.5 µM (inactive) | 22.3 µM (inactive) | –
CC(=O)OCC1OC(N=[N+]=[N-])C(OC(C)=O)C(OC(C)=O)C1OC1OC(COC(C)=O)C(OC(C)=O)C(OC(C)=O)C1OC(C)=O (stereo unspecified) | > 100 µM (inactive) | > 100 µM (inactive) | > 100 µM (inactive) | > 100 µM (inactive) | – | > 100 µM (inactive) | 71.6 µM (inactive) | – | > 100 µM (inactive)
O=c1[nH]c(=O)n(C2CC(O)C(CS)O2)cc1F (stereo unspecified) | 78.9 µM (inactive) | 77.6 µM (inactive) | > 10 µM (inactive) | – | > 100 µM (inactive) | > 100 µM (inactive) | > 100 µM (inactive) | > 100 µM (inactive) | –
